Data taken from article PMC12040169 (PLOS Biology, 2025).

Assay: in vitro
Conditions: human, hela cells, % viability

| SMILES | viability at 28.5 h, 10 µM |
| --- | --- |
| CCOc1ccc(C(=O)C2=C(O)C(=O)N(CCN3CCOCC3)C2c2ccc(N(C)C)cc2)c(C)c1 (stereo not shown) [CBK264650] | 92.7% |
| Nc1ccc2ccc(-c3ccsc3)nc2n1 [CBK067624] | 89.4% |
| Cn1cccc1CNCCc1ccc(S(N)(=O)=O)cc1 [CBK267831C] | 98.7% |
| Cc1ccc(-n2c(C)c([N+](=O)[O-])c3ccc(O)c(CN(C)C)c32)cc1 [CBK115328] | 88.8% |
| COCCSc1nc2c(c(=O)[nH]c(=O)n2C)n1CCCc1ccccc1 [CBK140504] | 90.9% |
| OC(CN1CCC2(CC1)CC(O)c1ccccc1O2)c1ccc(-c2ccccc2)cc1 (stereo not shown) [CBK286347] | 101% |
| CC(Oc1ccccc1)C(=O)NCCCc1ccccc1 (stereo not shown) [CBK264060] | 93.4% |
| Cn1cc(N2CCN(C(=O)CCOc3ccccc3)CC2)cn1 [CBK305473] | 102% |
| CCn1cc(C(=O)O)c(=O)c2cnc(N3CCN(C(=S)NC(=O)c4cccs4)CC3)nc21 [CBK265753] | 95.7% |
| COc1cncc(-c2cc(N3CCN(C(=O)c4ccco4)CC3)ncn2)c1 [CBK091121] | 97.4% |
| O=C(CN1CCN(c2ccccn2)CC1)N1c2ccccc2CCc2ccccc21 [CBK268868G] | 98.4% |
| O=C(CSc1nnc(-c2cccs2)n1-c1ccccc1)Nc1ccnc2ccccc12 [CBK267487] | 94.4% |
| CC(C)(C)NS(=O)(=O)c1ccc(OCC(=O)O)cc1 [CBK287077] | 100% |
| O=C(CN1C(=O)C2C3C=CC(C3)C2C1=O)NCc1ccco1 (stereo not shown) [CBK265116] | 96.4% |
| CCC(C)(C)C1CCC(NC(=O)CSCCC(=O)O)CC1 (stereo not shown) [CBK296674] | 107% |
| Cc1cc(-c2ccccc2)nc(SCC(=O)Nc2nnc(C)s2)n1 [CBK058194] | 87.3% |
| Cc1cc(S(=O)(=O)Nc2ccc(C(C)(C)C)cc2)sc1C(=O)O [CBK297946] | 88.1% |
| COCCN1CCN(C(=O)[C@@H]2Cc3c[nH]c4cccc(c34)[C@H](CC(C)C)N2)CC1 [CBK289419] | 84.5% |
| O=C(NO)c1nc[nH]c1C(=O)NO [CBK262077] | 97.7% |
| COc1ccc(Nc2cc(-c3ccccc3OC)ncn2)cn1 [CBK037176] | 88.9% |
| Cc1nonc1CNC(=O)C1CC2C=CC1C21CC1 (stereo not shown) [CBK281678] | 91.4% |
| CC1=C(C(=O)OC(C)C)C(c2cccc(I)c2)C2=C(CCCC2=O)N1 (stereo not shown) [CBK026317] | 86.5% |

| SMILES | viability at 28.5 h, 10 µM |
| --- | --- |
| COc1ccc2cc(C(=O)NCCn3ccnc3C)n(C)c2c1 [CBK282544] | 94.1% |
| CN(C)CCCO/N=C(\c1ccccc1)c1ccncc1 [CBK261464G] | 95.3% |
| CC1CCN(Cc2ccc(-c3nnn(CC(=O)NCc4ccc(C(F)(F)F)nc4)n3)cc2)CC1 [CBK149721T] | 112% |
| CC(=O)N1CCN(c2ncnc3c2nnn3-c2ccccc2)CC1 [CBK287753] | 92.9% |
| Cc1occc1-c1nnc(SCC(=O)Nc2cccc3nsnc23)o1 [CBK268979] | 89.5% |
| CCOC(=O)c1c2c([nH]c(=S)c1C#N)CCCC2 [CBK020049] | 97.6% |
| CCOc1cccc(-c2cncc(N(C)CCN(C)C)n2)c1 [CBK065977] | 102% |
| Fc1ccc(Oc2nccnc2N2CCN(CC3CC3)CC2)cc1 [CBK083033T] | 91.8% |
| CS(=O)(=O)N(Cc1ccccc1)c1ccc(C(=O)N/N=C/c2ccccc2C(F)(F)F)cc1 [CBK262711] | 88% |
| CCNC(=O)CN1CCN(C(C(=O)O)c2c[nH]c3ccc(C)cc23)CC1 (stereo not shown) [CBK286694] | 98% |
| CCC(=O)N1CCC(NC(=O)c2cnc(-c3ccncc3)s2)C1 (stereo not shown) [CBK305550] | 94.6% |
| COc1ccc(C(=O)COC(=O)c2cccc(N3C(=O)C4C5C=C(C)C(C5)C4C3=O)c2)cc1 (stereo not shown) [CBK264808] | 94.1% |
| OC(CN1CCN(Cc2ccc3c(c2)OCO3)CC1)c1ccccc1 (stereo not shown) [CBK074759] | 82.8% |
| O=C(Nc1ccc(C(=O)N2CCOCC2)cc1)c1cc(-c2cccnc2)nc2ccc(Cl)cc12 [CBK267725] | 93% |
| CCC(CO)NCc1ccc(-c2ccccc2)cc1 (stereo not shown) [CBK268082C] | 97.6% |
| Cc1ccc2c(c1)-c1c(ssc1=S)C(C)(C)N2C(=O)COc1nc2ccccc2s1 [CBK262682] | 88% |
| COC(=O)c1ccccc1NC(=O)CSc1nnc(-c2ccccc2)[nH]1 [CBK266338] | 96.7% |
| Fc1ccccc1COc1cccc(CNCc2ccccn2)c1 [CBK268552C] | 101% |
| OCc1ccccc1-c1cncc(NCC2CCOCC2)n1 [CBK037309] | 113% |
| Cc1ccc2c(c1)C(=O)CC1(CC3CCC1N3C(=O)C(C)C)O2 (stereo not shown) [CBK284468] | 87.1% |
| O=C(O)/C=C/c1cccc(NS(=O)(=O)c2ccc(C(=O)O)cc2)c1 [CBK262262] | 88% |
| CCn1nc(C)c(-c2cncn2Cc2ccccc2CN(C)C)c1C [CBK281998] | 88.1% |

| SMILES | viability at 28.5 h, 10 µM |
| --- | --- |
| COc1ccc(/C=C/C(=O)Nc2cc(S(N)(=O)=O)ccc2C)cc1 [CBK262651] | 102% |
| Cc1cc(F)ccc1S(=O)(=O)N(C(=O)c1ccncc1)c1ccc(OC(=O)c2ccncc2)cc1 [CBK266909] | 91.1% |
| Cc1c(C(c2ccc(C(=O)O)cc2)c2c(C)n(C)n(-c3ccccc3)c2=O)c(=O)n(-c2ccccc2)n1C [CBK261691] | 102% |
| CCOc1ccccc1-n1c(CCC(=O)O)ccc1-c1cccs1 [CBK264794] | 105% |
| CC(NC1=NC(C)(C)Cc2ccccc21)C(=O)O (stereo not shown) [CBK262575] | 89% |
| COc1cccc(C2=NO[C@@](CC(=O)O)(C(=O)NCc3ccccc3)C2)c1OC [CBK286641] | 83.4% |
| c1ccc2c(c1)CCC(CNCCN1CCOCC1)O2 (stereo not shown) [CBK023956G] | 94% |
| O=C(CN1CCCC1)NC1CCCc2c1cnn2-c1ccc(F)cc1 (stereo not shown) [CBK283930] | 91.5% |
| NC(CSC12CC3CC(CC(C3)C1)C2)C(=O)O (stereo not shown) [CBK287219] | 88.2% |
| COc1ccc(-c2noc(CN(C(=O)Cc3ccc(C)cc3)C(C)C)n2)cc1 [CBK269774] | 89.6% |
| COc1cncc(-c2cccc(NCC(c3cccnc3)N(C)C)n2)c1 (stereo not shown) [CBK037741] | 93.6% |
| O=C(CNC(=O)C1CCCCC1)NNC(=O)c1sc2ccccc2c1Cl [CBK267903] | 98.8% |
| O=C(O)CCSc1nnc(-c2cccc(Br)c2)o1 [CBK286540] | 82.8% |
| CC(=O)NCc1cccc(-c2cc(COc3ccc4c(c3)OCO4)cnc2-c2ccc(Cl)cc2)c1 [CBK164106A] | 105% |
| CN1CCC2(CC1)CC(NC(=O)c1ccco1)c1ccccc1O2 (stereo not shown) [CBK283804] | 96.6% |
| CCOC(=O)CN1C(=O)N2CCCN=C2c2ccc(Cl)cc21 [CBK284401] | 77.8% |
| Cc1ccc(-c2ccc(N3CCN(C)CC3)nc2)cc1C [CBK036937] | 93.7% |
| CCCCNC(=O)c1nnc(C(=O)Nc2cccc(Cl)c2)s1 [CBK294407] | 87.1% |
| O=C(CSc1nc(=O)cc(O)[nH]1)c1ccccc1 [CBK026570] | 96.7% |
| Fc1ccccc1CN(CCCn1ccnc1)Cc1cccnc1 [CBK283099] | 90.4% |
| O=C(N/N=C\c1c(F)cccc1Cl)c1ccncc1 [CBK023263] | 84.7% |
| Cc1ccc(NC(=O)Cn2nc(C)c([N+](=O)[O-])c2C)cc1Cl [CBK268336] | 98.5% |

| SMILES | viability at 28.5 h, 10 µM |
| --- | --- |
| CC(C)Nc1cc(Sc2cccc(C(=O)O)c2)ncn1 [CBK093583] | 117% |
| Clc1ccc(N2CCN(c3cnc4ccccc4n3)CC2)cc1Cl [CBK066903] | 97.8% |
| O=C(NCc1cccc(C(F)(F)F)c1)c1ccccc1-n1cccc1 [CBK149598] | 100% |
| CNCCc1nc(-c2cccs2)c2ccccn12 [CBK035905] | 94.5% |
| O=C(Nc1ccccc1[N+](=O)[O-])c1cc(S(=O)(=O)Nc2ccccn2)ccc1Cl [CBK263229] | 87.8% |
| CC1=NN(c2ccc(S(N)(=O)=O)cc2)C(=O)/C1=C\c1ccc(-c2ccc(Cl)c([N+](=O)[O-])c2)o1 [CBK263612] | 98.8% |
| O=S(=O)(Cc1cc(Cl)ccc1F)N1CCN(CCO)CC1 [CBK306385] | 80% |
| O=C(Cn1c(=O)cc(O)c2ccccc21)N1CCN(c2ccccn2)CC1 [CBK291117] | 94.4% |
| N=C1NC(=O)/C(=C/c2cccc(OCc3cccc4ccccc34)c2)S1 [CBK263610] | 93.9% |
| CCOC(=O)c1[nH]c2ccccc2c1NC(=O)c1ccc(OC(F)(F)F)cc1 [CBK160157] | 87.8% |
| Cc1nc(C2CCCN2C(=O)CC2CCCC2)nc2c1CCCN2Cc1ccccn1 (stereo not shown) [CBK286252] | 105% |
| CN(C)C(=O)c1ccc(Cn2nc(NC(=O)OCc3ccccc3)c3ccccc32)cc1 [CBK048578] | 89.6% |
| NC(=O)c1ccccc1NC(=O)CSc1nc(N)cc(N)n1 [CBK267983] | 115% |
| O=C(N[C@H]1C[C@H]2C(=O)NC[C@@H](CCC(=O)N3CCOCC3)N2C1)c1cccs1 [CBK289009] | 92% |
| COc1ccc(Cl)cc1N1CCN(C/C=C/c2ccccc2)CC1 [CBK126415] | 90.3% |
| COc1ccc(C2=NN(c3ccc([N+](=O)[O-])cc3)C(=O)/C2=C/NCc2ccccn2)cc1 [CBK265276] | 107% |
| OC(COc1ccccc1)Cn1ncnn1 (stereo not shown) [CBK026083] | 89.6% |
| O=C(O)c1ccc(NS(=O)(=O)Cc2ccccc2[N+](=O)[O-])cc1 [CBK034054] | 90.4% |
| Cc1ccc(Cl)cc1-n1cc(-c2ccc(F)cc2F)nn1 [CBK112995] | 89.2% |
| O=C(C1CC1)N1CCC(c2[nH]ncc2-c2ccncc2)CC1 [CBK284238] | 87.6% |
| N/C(=N\C(=O)CN1C(=O)C2CCCCC2C1=O)Nc1nc2ccccc2s1 (stereo not shown) [CBK263877] | 92.4% |

Same assay, conditions: human, hela cells, % viability, bulk resorufin, single well

| SMILES | viability at 28.5 h, 10 µM |
| --- | --- |
| CCOC(=O)C1(c2ccccc2)CCN(CC(=O)Nc2ccc(C(=O)OC)cc2)CC1 [CBK020942] | 92.9% |
